Test results: US20130045203A1, “Uses of Noscapine and Derivatives in Subjects Diagnosed with FAP” (EMORY UNIVERSITY, priority 2010, published 2013)
Entries after “also recorded” stand apart in the source; their conditions may differ.

Legend:
[1] = test system: β-catenin activity in Apc^Min/+ MEFs; assay: Tcf4/β-catenin responsive luciferase reporter assay; assay type: cell-based, mouse
Description: (§1) HCT116 cells harbor an in-frame deletion of one phosphorylation site (Ser^45) in β-catenin that renders is partially active but has wild type APC. […] Because β-catenin is a negative regulator of CDKs inhibitor p21, p21 levels will rise upon restored downregulation of β-catenin and the cell cycle progression will be inhibited allowing cellular apoptosis (FIG. 2A). […] Hohla et al., Cell Cycle, 2009, 8(19):3149-3156.
(§2) This decrease in β-catenin levels does translate in reduction of its activity. A reporter gene luciferase under the control of three cloned copies of a conserved Tcf4/β-catenin responsive element was used and compared with an internal control, i.e., another reporter Renilla activity driven by a (β-catenin independent) promoter (CMV) in all three cell types tested (HCT116, DLD, Apc^Min/+ MEFs).

[2] = test system: β-catenin levels in Apc^Min/+ MEFs; assay: Quantitative western blot of β-catenin levels; assay type: cell-based, mouse
[3] = test system: cyclin D1, c-Myc, p21, cleaved caspase-3; assay: Quantitative western blot of β-catenin target proteins and cleaved caspase-3; assay type: cell-based, mouse
Description: Positively responsive target genes cyclin-D l and c-Myc, and the negatively responsive gene, p21, respond with the restoration of partial loss of function by depleted APC activity after 9-bromonoscapine treatment. […] Furthermore, caspase-3 was activated as measured by the rising levels of cleaved active caspase-3.

[4] = test system: β-catenin activity in HCT116 cells; assay: Tcf4/β-catenin responsive luciferase reporter assay; assay type: cell-based; details: 8 hours after treatment
Description: as §1, §2

[5] = test system: β-catenin activity in DLD1 cells; assay: as above; assay type: cell-based; details: p<0.01
Description: as §1, §2

[6] = Toxicology: histopathology, organ function, hematology; assay type: in vivo, mouse
Protocol: Hematoxylin and eosin stained 5 μm sections of paraffin-embedded brain, lung, liver, kidney, thymus, spleen, heart, and sciatic nerve tissues were analyzed. […] Organ associated toxicity was assessed by measuring organ functions in vehicle-treated and 9-bromonoscapine treated groups. Liver function tests (total bilirubin, alanine transaminase, aspartate aminotransferase, and alkaline phosphate levels) and renal functions tests (blood urea nitrogen and creatinine levels) were similar between drug treated and vehicle-treated groups.

[7] = test system: Apc^Min/+ mice; assay: Intestinal polyp/adenoma study in Apc^Min/+ mice; assay type: in vivo, mouse; details: for adenoma load, distal intestine: control 12.5±2.9; for adenoma load, distal intestine / adenoma load, proximal intestine: p<0.01; for adenoma load, proximal intestine: control 32.2±2.3
Protocol: Mice were treated either with the vehicle solution alone (control) or 150 mg/kg body weight of 9-bromonoscapine. The mice were analyzed for the number of polyps throughout the gastrointestinal tract of animals. […] Representative bright filed micrographs of hematoxylin and eosine stained 5 μm cross sections from the intestine of vehicle treated control group (FIG. 3A ii, left panel) and 9-bromonoscapine treated group (FIG. 3A ii, right panel) show hyperplastic tissue lesions. In 9-bromonoscapine treated animals, the lesions were not clustered and, when found, seem much more restricted to the individual microvilli and were subdued in appearance (FIG. 3A ii, right panel).
To distinguish between neopolyposis post-treatment versus the growth of apparently existing polyps, two treatment regimens were followed. Treated 1: 9-bromonoscapine oral treatment (150 mg/kg body weight) began after 8 weeks of age and continued daily for 12 weeks prior to the experimental end point (in 20 weeks): Treated 2: 9-bromonoscapine oral administration began 21 days after birth at the same dose level for time matched period until the experimental end point. At this time, animals were euthanized and the entire GI tract was dissected out and flushed with PBS. The intestine was then removed from the colon and cut into three equal segments: proximal, medial, and distal. The colon and all three segments of the intestine were cut open longitudinally, stained with methylene blue prior to examination under a dissecting microscope fitted with a micrometer to aid the measurements. The vertex and co-vertex of each elliptical lesion was measured. The area was then calculated by multiplying the vertex, co-vertex and π (3.14). […] There was no visible difference between the groups of treated 1 and treated 2. The colonic adenomas are known to be rare in Apc^Min/+ mouse models.

[8] = test system: tubulin; details: without changing total microtubule polymer mass; cited from earlier work
[9] = test system: WT MEFs; assay: FACS analysis of DNA content; assay type: cell-based, mouse
[10] = test system: Apc^Min/+ MEFs; assay: FACS analysis of DNA content; assay type: cell-based, mouse
[11] = test system: WT MEFs; assay: Confocal microscopy of MT arrays and chromosomes; assay type: cell-based, mouse; details: reversed 24 hours after withdrawal
[12] = test system: Apc^Min/+ MEFs; assay: Trypan blue exclusion viable/dead cell count; assay type: cell-based, mouse
Protocol: (§3) Murine embryonic fibroblasts (MEFs) isolated from Apc^Min/+ mice and wild type mice were treated with either vehicle solution of DMSO or varying concentrations of 9-bromonoscapine for 48 hours. Viable and dead cells were counted in triplicate using exclusion of the vital dye, trypan blue. […] This provided a therapeutic window (5-50 μM) for selective killing of Apc^Min/+ MEFs while causing minimal damage to the WT MEFs (FIG. 1A).

[13] = test system: WT MEFs; assay: Trypan blue exclusion viable/dead cell count; assay type: cell-based, mouse; details: 48 hours
Protocol: as §3

[14] = test system: Apc^Min/+ MEFs; assay: Confocal microscopy of MT arrays and chromosomes; assay type: cell-based, mouse; details: 48 hours of treatment, no recovery after drug removal
[15] = test system: Apc^Min/+ MEFs; assay: Annexin V-Alexa Fluor488 / propidium iodide apoptosis FACS; assay type: cell-based, mouse; details: 50 μM, 48 hour treatment
Protocol: (§4) Apoptotic cells that externalize the normal internal membrane lipid, phosphatidylserine, were analyzed by binding a fluorescently conjugated PS-binding protein, Annein V-Alexa Fluor488. These cells can be distinguished from the late apoptotic cells that also allow the DNA dye, Propidium iodide (PI) to penetrate the cell membranes allowing intracellular DNA to bind it. As shown in FIG. 1D i-ii, 73% of Apc^Min/+ MEFs were in early and late stages of apoptosis after a 48 hour treatment with 9-bromonoscapine (50 μM) as compared to a modest 21.6% WT MEFs under identical treatment regimen (FIG. 1D i-ii). 9-Bromonoscapine causes a selective cell death (apoptosis) in MEFs isolated from Apc^Min/+ mice when compared to the WT MEFs providing a therapeutic window from 5-50 μM range.

[16] = test system: WT MEFs; assay: as above; assay type: cell-based, mouse; details: 50 μM, 48 hour treatment
Protocol: as §4

[17] = drug treated vs vehicle-treated
[18] = Treated 1: oral 150 mg/kg daily from 8 weeks of age for 12 weeks
[19] = Treated 2: oral 150 mg/kg from 21 days after birth to end point

## COc1ccc2c(c1OC)C(=O)OC2C1c2c(c(Br)c3c(c2OC)OCO3)CCN1C (stereo not drawn) [9-bromonoscapine, 3-(9-bromoe-4-methoxy-6-methyl-5,6,7,8-tetrahydro-[1,3]dioxolo[4,5-g]isoquinolin-5-yl)-6,7-dimethoxyisobenzofuran-1(3H)-one]
[1]; Apc^Min/+ MEFs, p<0.01
  β-catenin activity lowered to: 59%
[1]; Apc^Min/+ cells
  β-catenin activity (in words): fell to half the original levels
[2]
  β-catenin levels: two-fold decrease; also recorded: fell to half the original levels
[3]
  c-Myc protein level: down
  caspase-3 activation (cleaved active caspase-3): activated
  cyclin D1 protein level: down
  p21 level: elevated
[4]
  decline in β-catenin activity: 31%
[5]
  β-catenin activity lowered to: 48%
[6]; among the three groups
  systemic homeostasis (albumin, total protein, glucose) and electrolyte balances (Na+, K+, TCO2): not distinguishable profiles
[6]; blinded observations, treated vs vehicle
  tissue architecture (H&E sections of brain, lung, liver, kidney, thymus, spleen, heart, sciatic nerve): did not reveal any significant differences
[6]; [17]
  liver function tests (total bilirubin, alanine transaminase, aspartate aminotransferase, alkaline phosphate levels): similar
  renal functions tests (blood urea nitrogen and creatinine levels): similar
[6]; treated vs vehicle
  WBC, RBC counts, hemoglobin concentration, hematocrit, platelet counts: no significant differences
[7]; 150 mg/kg body weight, methylene blue stained intestine
  number and overall areas of intestinal lesions: pronounced decrease
[7]; 150 mg/kg, basal areas of the villus
  apoptotic foci in lesioned tissue (cleaved caspase 3 immunohistochemistry): additional copious apoptotic foci
[7]; [18]
  adenoma load, distal intestine: 5.2±0.6 mm2
  adenoma load, proximal intestine: 13.7±1.4 mm^2
[7]; [19]
  adenoma load, distal intestine: 5.2±0.8 mm2
  adenoma load, proximal intestine: 11.8±0.8 mm^2
[7]; both treatment groups (Treated 1, Treated 2) vs sham-treated controls, oral 150 mg/kg
  total number of adenomas: significant decline
[7]; size distribution bins, oral 150 mg/kg
  number of big lesions (>3 mm^2 and >1 mm^2): significant decreases
[7]; treated vs control
  adenoma within the colon: did not reveal any apparent differences
[8]
  tubulin binding affinity relative to noscapine: higher affinity than noscapine
[9]
  cell cycle distribution (DNA content): a decline in G1 and a rise in G2/M
[10]
  cell cycle distribution (DNA content): a decline in G1 and a rise in G2/M
[10]; 48 hours of treatment
  sub-G1 DNA content: distinct shift of cells to a sub-G1 DNA content of <2N
[11]
  mitotic phenotype: typical mitotic arrest with bipolar prometaphase spindles
[12]; Apc^Min/+ MEFs, 48 hours, trypan blue exclusion
  IC50: 28.6 µM
[12]; minimal damage to WT MEFs
  therapeutic window for selective killing of Apc^Min/+ MEFs: 5 to 50 µM
[12]; ratio of IC50 values, 48 hours
  sensitivity of Apc^Min/+ MEFs relative to WT MEFs: 4.7 times
[13]
  IC50: 135 µM
[14]
  mitotic phenotype: highly disorganized, often multipolar mitoses
[15]
  cells in early and late stages of apoptosis: 73%
[16]
  cells in early and late stages of apoptosis: 21.6%

## COc1ccc2c(c1OC)C(=O)OC2C1c2c(cc3c(c2OC)OCO3)CCN1C (stereo not drawn) [noscapine, 3-(4-methoxy-6-methyl-5,6,7,8-tetrahydro-[1,3]dioxolo[4,5-g]isoquinolin-5-yl)-6,7-dimethoxyisobenzofuran-1(3H)-one]
[9]
  cell cycle distribution (DNA content): reversible G2/M arrest
